Drawing on PubChem BioAssay (NCI), this text covers GI50 and TGI for 15 compounds.

“And” between values parts separate entries of the source, which are not always exact repeats. Equal entries are not always repeated.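 Protocol summary: plate cells (96-well), add compound at 5 concentrations, incubate 48 h, interpolate endpoints linearly. At the GI50, growth is halved. TGI is the concentration that stops growth completely.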

Among the test systems are NCI-H522 lung; NCI-H460 lung; HCT-116 colon; OVCAR-8 ovarian; OVCAR-5 ovarian; OVCAR-3 ovarian; UACC-257 melanoma; NCI-H23 lung; EKVX NSCLC; LOX IMVI melanoma.
Common to all, as to experiment: NCI tumour cell line growth inhibition, 48 h

Turning to `C=C=[CH][Sn]([c]1ccccc1)([c]1ccccc1)[c]1ccccc1`, the GI50 was 1.36 µM in the assay on NCI-H522 lung; 1.44 µM in the assay with NCI-H460 lung; 0.866 µM with HCT-116 colon; 1.85 µM with OVCAR-8 ovarian; 1.46 µM in the assay on OVCAR-5 ovarian; 1.54 µM in the assay with OVCAR-3 ovarian. Also, the GI50 with UACC-257 melanoma is 1.63 µM; in the assay on NCI-H23 lung, 1.58 µM; in the assay with EKVX NSCLC, 1.7 µM; with LOX IMVI melanoma, 1.43 µM. The TGI in the assay with NCI-H522 lung worked out at 2.85 µM; with NCI-H460 lung, 3.02 µM; in the assay with HCT-116 colon, 2.27 µM; in the assay with OVCAR-8 ovarian, 3.68 µM; in the assay on OVCAR-5 ovarian it was 2.9 µM; with OVCAR-3 ovarian, 4.61 µM. The TGI in the assay on UACC-257 melanoma is 3.05 µM; in the assay with NCI-H23 lung it was 3.47 µM; in the assay on EKVX NSCLC it was 4.78 µM; in the assay with LOX IMVI melanoma, 2.87 µM.
`CC(C)c1cccc(C(C)C)c1NC1=CC(=O)C(=O)c2ccccc21`: the TGI in the assay with NCI-H522 lung, in the assay with NCI-H460 lung, with HCT-116 colon, with OVCAR-8 ovarian, with OVCAR-5 ovarian and in the assay on OVCAR-3 ovarian was greater than 100 µM in each case. The TGI with UACC-257 melanoma, in the assay on NCI-H23 lung, in the assay on EKVX NSCLC and in the assay on LOX IMVI melanoma was greater than 100 µM throughout.
In the case of `O=[N+]([O-])c1cc(/C=N/NS(=O)(=O)c2ccc(F)cc2)c(O)c([N+](=O)[O-])c1`, the TGI is 46.3 µM with NCI-H522 lung; 84 µM with NCI-H460 lung; greater than 100 µM with HCT-116 colon; 57.4 µM in the assay with OVCAR-8 ovarian; greater than 100 µM with OVCAR-5 ovarian; 68 µM in the assay on OVCAR-3 ovarian. Besides, the TGI with UACC-257 melanoma is greater than 100 µM; in the assay with NCI-H23 lung it was 60.1 µM; in the assay with EKVX NSCLC, greater than 100 µM; in the assay with LOX IMVI melanoma it was greater than 100 µM.
As to `CC[C@@]1(OC(=O)CN)C(=O)OCc2c1cc1n(c2=O)Cc2cc3c(N)c4c(cc3nc2-1)OCO4`, the GI50 is 0.00115 µM in the assay on NCI-H522 lung; less than 0.0001 µM in the assay with NCI-H460 lung; 0.000318 µM in the assay on HCT-116 colon; 0.000109 µM with OVCAR-8 ovarian; 0.0065 µM and 0.0427 µM in the assay with OVCAR-5 ovarian; 0.0352 µM and 0.0116 µM with OVCAR-3 ovarian. Moreover, the GI50 in the assay with UACC-257 melanoma is 0.0158 µM; with NCI-H23 lung it was less than 0.0001 µM; with EKVX NSCLC, 0.0808 µM; with LOX IMVI melanoma, less than 0.0001 µM. Also, the TGI in the assay on NCI-H522 lung was 0.146 µM; with HCT-116 colon it was greater than 100 µM; with OVCAR-8 ovarian, 0.107 µM and 0.0128 µM; with OVCAR-3 ovarian, 0.481 µM and 0.336 µM; in the assay with UACC-257 melanoma, 0.228 µM.
As for `CC(C)NC(=O)O/N=C1\CCC2[C@@H]3CC=C4C[C@@H](OC(=O)NC(C)C)CC[C@]4(C)C3CC[C@]12C` (stereo not given in full), the TGI in the assay on NCI-H522 lung is 3.4 µM; with NCI-H460 lung, 3.06 µM; in the assay on HCT-116 colon it was 4.94 µM; in the assay on OVCAR-8 ovarian, 3.75 µM; with OVCAR-5 ovarian, 4.26 µM; with OVCAR-3 ovarian, 3.6 µM. The TGI in the assay on UACC-257 melanoma was 2.4 µM; with NCI-H23 lung it was 3.79 µM; in the assay with EKVX NSCLC it was 3.42 µM; in the assay with LOX IMVI melanoma, 2.27 µM.
As to `N#CSCC(=O)c1ccc(Cl)cc1`, the GI50 in the assay on NCI-H522 lung was 2.69 µM; in the assay on NCI-H460 lung, 3.16 µM; with HCT-116 colon it was 3.09 µM; with OVCAR-8 ovarian, 4.78 µM; in the assay on OVCAR-5 ovarian, 5.39 µM; in the assay on OVCAR-3 ovarian, 2.33 µM. Also, the GI50 in the assay on UACC-257 melanoma was 5.64 µM; in the assay with NCI-H23 lung, 4.27 µM; in the assay on EKVX NSCLC, 4.99 µM; in the assay on LOX IMVI melanoma, 3.07 µM. Moreover, the TGI was determined as 9.51 µM in the assay on NCI-H522 lung; 18.7 µM with NCI-H460 lung; 12.7 µM in the assay on HCT-116 colon; 22.4 µM in the assay on OVCAR-8 ovarian; 27.9 µM in the assay on OVCAR-5 ovarian; 5.26 µM in the assay on OVCAR-3 ovarian. Besides, the TGI with UACC-257 melanoma was greater than 28.6 µM; in the assay on NCI-H23 lung, 32.3 µM; with EKVX NSCLC, 26.5 µM; in the assay on LOX IMVI melanoma, 13.3 µM.
Take `CCOC(=O)c1c(C(F)(F)F)oc2c1ccc1nc3nonc3nc12`: the TGI in the assay on NCI-H522 lung turned out to be 29.3 µM; in the assay with NCI-H460 lung, 49.6 µM; in the assay with HCT-116 colon, 32.1 µM; in the assay on OVCAR-8 ovarian, 30.4 µM; in the assay with OVCAR-5 ovarian it was 31.6 µM; in the assay with OVCAR-3 ovarian, 30.4 µM. The TGI was 27.9 µM with UACC-257 melanoma, 18.3 µM in the assay on NCI-H23 lung, 33.3 µM in the assay on EKVX NSCLC and 31.8 µM in the assay with LOX IMVI melanoma.
Regarding `NNC(=S)N/N=C/C(Cl)=C(\Cl)C(=O)O`, the TGI in the assay with NCI-H522 lung, in the assay on NCI-H460 lung, in the assay on HCT-116 colon, in the assay with OVCAR-8 ovarian, in the assay with OVCAR-5 ovarian and in the assay on OVCAR-3 ovarian was greater than 100 µM throughout. Further, the TGI with UACC-257 melanoma, in the assay with NCI-H23 lung, in the assay with EKVX NSCLC and in the assay with LOX IMVI melanoma was greater than 100 µM throughout.
For `Nn1c(N=Nc2c(O)[nH]c3ccccc23)n[nH]c1=S`, the TGI in the assay with NCI-H522 lung, in the assay with NCI-H460 lung, in the assay on HCT-116 colon, in the assay on OVCAR-8 ovarian, with OVCAR-5 ovarian and with OVCAR-3 ovarian was greater than 100 µM each time. In addition, the TGI in the assay with UACC-257 melanoma, in the assay with NCI-H23 lung, in the assay with EKVX NSCLC and in the assay on LOX IMVI melanoma was greater than 100 µM in each case.
For `Cc1c(N2C(=O)/C(=C\c3ccc(N(C)C)cc3)N=C2c2ccccc2)c(=O)n(-c2ccccc2)n1C`, the GI50 with NCI-H522 lung was 67.8 µM; in the assay with NCI-H460 lung, 62.9 µM; in the assay with HCT-116 colon it was 33.7 µM; in the assay on OVCAR-8 ovarian, 83.9 µM; in the assay on OVCAR-5 ovarian it was greater than 90.1 µM; in the assay with OVCAR-3 ovarian, greater than 70.6 µM. The GI50 was greater than 100 µM in the assay with UACC-257 melanoma, greater than 92.2 µM in the assay with NCI-H23 lung, 68.4 µM with EKVX NSCLC and greater than 94.4 µM in the assay on LOX IMVI melanoma. The TGI in the assay with NCI-H522 lung, with NCI-H460 lung, in the assay with HCT-116 colon, with OVCAR-8 ovarian, in the assay on OVCAR-5 ovarian and in the assay with OVCAR-3 ovarian was greater than 100 µM in each case. The TGI in the assay with UACC-257 melanoma, in the assay with NCI-H23 lung, in the assay on EKVX NSCLC and in the assay with LOX IMVI melanoma was greater than 100 µM each time.
As to `CSc1ccc(C2=NN(C(=O)c3ccc(N)cc3)C(c3ccc(F)cc3)C2)cc1` (stereo not given), the GI50 is 13.8 µM in the assay with NCI-H522 lung; 7.83 µM in the assay with NCI-H460 lung; 1.73 µM in the assay with HCT-116 colon; 16.1 µM in the assay with OVCAR-8 ovarian; 16.7 µM in the assay on OVCAR-5 ovarian; 4.54 µM in the assay with OVCAR-3 ovarian. Besides, the GI50 in the assay on UACC-257 melanoma is 20.4 µM; in the assay on NCI-H23 lung, 17.5 µM; in the assay with EKVX NSCLC, 16.6 µM; with LOX IMVI melanoma, 2.53 µM. The TGI with NCI-H522 lung was 30.9 µM; in the assay with NCI-H460 lung it was 35.2 µM; with HCT-116 colon it was 3.93 µM; in the assay on OVCAR-8 ovarian, 32.5 µM; in the assay on OVCAR-5 ovarian, 31.2 µM; with OVCAR-3 ovarian it was 17.2 µM. Further, the TGI stood at 35.6 µM in the assay with UACC-257 melanoma, 37.9 µM with NCI-H23 lung, 34 µM in the assay on EKVX NSCLC and 6.84 µM with LOX IMVI melanoma.
In the case of `N#CC[C@H](C1CCCC1)n1cc(-c2ncnc3[nH]ccc23)cn1`, the GI50 is 21 µM in the assay on NCI-H522 lung; 14.4 µM in the assay on NCI-H460 lung; 20.2 µM with HCT-116 colon; 30.3 µM in the assay on OVCAR-8 ovarian; 26.7 µM with OVCAR-5 ovarian; 24.2 µM in the assay on OVCAR-3 ovarian. Moreover, the GI50 with UACC-257 melanoma was 44.2 µM; in the assay on NCI-H23 lung, 19.6 µM; in the assay with EKVX NSCLC it was 14.9 µM; in the assay with LOX IMVI melanoma it was 20.9 µM. For the same compound, the TGI in the assay with NCI-H522 lung is 57.9 µM; in the assay with NCI-H460 lung it was greater than 100 µM; in the assay on HCT-116 colon it was greater than 100 µM; in the assay with OVCAR-8 ovarian it was greater than 100 µM; in the assay on OVCAR-5 ovarian, greater than 78.5 µM; in the assay on OVCAR-3 ovarian, greater than 67.3 µM. Besides, the TGI with UACC-257 melanoma is greater than 100 µM; in the assay on NCI-H23 lung, 75.7 µM; in the assay with EKVX NSCLC, greater than 83.7 µM; in the assay with LOX IMVI melanoma, greater than 100 µM.
Turning to `CNCCOc1nc2c3cnccc3cc(-c3cc(OC)c(OC)c(OC)c3)c2c2ccncc12`, the GI50 in the assay with NCI-H522 lung was 0.0666 µM; in the assay on NCI-H460 lung, less than 0.01 µM; in the assay on HCT-116 colon, less than 0.0147 µM; in the assay with OVCAR-8 ovarian, 0.0418 µM; in the assay on OVCAR-5 ovarian it was 0.0403 µM; in the assay on OVCAR-3 ovarian it was 0.0906 µM. The GI50 is 0.13 µM in the assay with UACC-257 melanoma, 0.0278 µM in the assay with NCI-H23 lung, 0.0782 µM in the assay with EKVX NSCLC and 0.0131 µM in the assay with LOX IMVI melanoma. Besides, the TGI came out at 0.661 µM in the assay on NCI-H522 lung; 0.103 µM with NCI-H460 lung; 0.175 µM in the assay on HCT-116 colon; 0.466 µM with OVCAR-8 ovarian; 0.426 µM with OVCAR-5 ovarian; 0.464 µM in the assay with OVCAR-3 ovarian. Besides, the TGI in the assay on UACC-257 melanoma came out at 0.728 µM; in the assay with NCI-H23 lung, 0.161 µM; with EKVX NSCLC, 0.432 µM; in the assay on LOX IMVI melanoma it was 0.0944 µM.
Turning to `NC(=O)NC(=O)C1CCCCC1C(=O)O` (stereo not given), the TGI in the assay with NCI-H522 lung, with NCI-H460 lung, with HCT-116 colon, in the assay on OVCAR-8 ovarian, in the assay on OVCAR-5 ovarian and in the assay on OVCAR-3 ovarian was greater than 100 µM throughout. Moreover, the TGI in the assay with UACC-257 melanoma, with NCI-H23 lung, with EKVX NSCLC and with LOX IMVI melanoma was greater than 100 µM in each case.
Take `Cc1cc(C)c2[s+]snc2c1`: the TGI was 77.6 µM with NCI-H522 lung; greater than 100 µM with NCI-H460 lung; greater than 100 µM in the assay on HCT-116 colon; greater than 100 µM in the assay on OVCAR-8 ovarian; greater than 100 µM in the assay on OVCAR-5 ovarian; greater than 100 µM in the assay with OVCAR-3 ovarian. The TGI in the assay with UACC-257 melanoma, with NCI-H23 lung, in the assay on EKVX NSCLC and in the assay with LOX IMVI melanoma was greater than 100 µM in each case.
